# Measured values taken from US20090247636A1, “AGENT FOR SUPPRESSION OF GASTRIC EMPTYING COMPRISING 4-HYDROXYISOLEUCINE” (AJINOMOTO CO., INC.,, priority 2006, published 2009).
# Legend:
# body weight gain = details: high-fat diet-fed mouse; cited from earlier work
# food intake = assay: Food intake suppressive action (cumulative feed intake); format: in vivo, Wistar rats; details: 500 mg/kg oral after fasting for 9 hours, vs vehicle, p<0.05, FIG. 2
# Procedure: Male Wistar rats (7 weeks of age, Charles River Laboratories Japan Inc.) (n=5) were used. After fasting for 9 hours, distilled water for injection (5 mL/kg) or 4-hydroxyisoleucine (50, 150, 500 mg/5 mL/kg) was orally administered at 18:00. Immediately thereafter, feeding was started. The cumulative feed intake was measured at 30 min, 1 hr, 3 hr and 16 hr after the administration. […] The difference between the 4-hydroxyisoleucine administration group and the distilled water for injection (vehicle) administration group was detected according to Student's t test, and p<0.05 was judged as significant.
# insulin secretion = details: in vitro; cited from earlier work
# [1] = in vivo; cited from earlier work
# gastric emptying = assay: Gastric emptying-suppressive action (phenol red test meal); format: in vivo, Sprague Dawley rats; details: 500 mg/kg oral, test meal 1 hour later, stomach isolated after 90 minutes, vs vehicle, p<0.05, FIG. 1
# Procedure: Male Sprague Dawley rats (12 weeks of age, Charles River Laboratories Japan Inc.) (n=5) were used. After fasting for 20 hours, distilled water for injection (5 mL/kg) was orally administered to a vehicle group and 4-hydroxyisoleucine (500 mg/5 mL/kg) was orally administered to a 4-hydroxyisoleucine administration group. One hour later, a test meal (1.5% methylcellulose, 0.05% phenol red, 1.5 ml) was orally administered. After 90 minutes, the stomach was isolated under an ether anesthesia, the gastric contents were recovered and the remaining phenol red was quantified. A control group was prepared. After fasting for 20 hours, a test meal (1.5% methylcellulose, 0.05% phenol red, 1.5 mL) was orally administered. Immediately after administration of the test meal, the stomach was isolated under an ether anesthesia, the gastric contents were recovered and the remaining phenol red was quantified. The gastric emptying was calculated by the following formula.
# Gastric emptying (%)=(1-phenol red amount of each individual/average phenol red amount of control group*)×100*:test meal alone was administered, n=2
# The difference between the 4-hydroxyisoleucine (HIL) administration group and the distilled water for injection (vehicle) administration group was detected according to Student's t test, and p<0.05 was judged as significant.
smiles,measurement,setting,value
C[C@@H]([C@H](C)O)[C@H](N)C(=O)O [4-hydroxyisoleucine],suppression of body weight gain,body weight gain,does not show such action
same,food intake (cumulative feed intake),food intake,significantly suppressed
same,insulin secretagogue action,insulin secretion,shows an insulin secretagogue action
same,antidiabetic action,[1],an antidiabetic action
same,Gastric emptying (%),gastric emptying,significantly suppressed
